Key:
[1] = species on record: Homo sapiens; experiment: Selectivity of human progesterone receptor over human glucocorticoid receptor
[2] = target: T1, Progesterone receptor (Homo sapiens, UniProt P06401); experiment: Antagonist activity at human progesterone receptor assessed as inhibition of alkaline phosphatase activity in human T47D cells; assay type: functional, cell-based
T1 sequence (P06401 whole entry): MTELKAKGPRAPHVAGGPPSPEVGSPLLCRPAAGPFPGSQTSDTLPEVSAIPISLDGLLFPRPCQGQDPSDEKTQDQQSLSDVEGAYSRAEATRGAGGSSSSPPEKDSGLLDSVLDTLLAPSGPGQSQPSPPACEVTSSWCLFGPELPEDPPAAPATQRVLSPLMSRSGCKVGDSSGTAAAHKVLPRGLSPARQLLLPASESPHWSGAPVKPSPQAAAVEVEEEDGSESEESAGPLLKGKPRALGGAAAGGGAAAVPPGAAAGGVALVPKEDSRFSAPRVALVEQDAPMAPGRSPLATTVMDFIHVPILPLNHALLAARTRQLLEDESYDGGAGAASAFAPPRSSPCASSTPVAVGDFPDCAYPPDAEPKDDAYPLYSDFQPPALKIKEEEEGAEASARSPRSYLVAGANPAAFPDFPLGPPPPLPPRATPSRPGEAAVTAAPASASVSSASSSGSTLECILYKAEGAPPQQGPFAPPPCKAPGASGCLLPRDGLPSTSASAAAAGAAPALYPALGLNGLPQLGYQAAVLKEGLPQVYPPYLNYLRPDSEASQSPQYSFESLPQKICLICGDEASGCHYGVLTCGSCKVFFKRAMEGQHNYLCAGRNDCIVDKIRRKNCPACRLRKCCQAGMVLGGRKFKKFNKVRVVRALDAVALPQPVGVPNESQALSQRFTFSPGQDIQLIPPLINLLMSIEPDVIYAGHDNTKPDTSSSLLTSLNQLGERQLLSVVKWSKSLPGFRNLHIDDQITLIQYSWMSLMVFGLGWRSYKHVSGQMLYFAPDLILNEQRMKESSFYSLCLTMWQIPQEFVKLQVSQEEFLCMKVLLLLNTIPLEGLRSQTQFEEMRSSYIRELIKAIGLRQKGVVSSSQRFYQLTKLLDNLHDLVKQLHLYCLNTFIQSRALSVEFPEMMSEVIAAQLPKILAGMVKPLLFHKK

[3] = target: T2, Glucocorticoid receptor (Homo sapiens, UniProt P04150); experiment: Antagonist activity at human glucocorticoid receptor assessed as inhibition of corticoid-induced transcription in human A549 cells by GRE-linked luciferase reporter gene assay; assay type: functional, cell-based
T2 sequence (P04150 whole entry): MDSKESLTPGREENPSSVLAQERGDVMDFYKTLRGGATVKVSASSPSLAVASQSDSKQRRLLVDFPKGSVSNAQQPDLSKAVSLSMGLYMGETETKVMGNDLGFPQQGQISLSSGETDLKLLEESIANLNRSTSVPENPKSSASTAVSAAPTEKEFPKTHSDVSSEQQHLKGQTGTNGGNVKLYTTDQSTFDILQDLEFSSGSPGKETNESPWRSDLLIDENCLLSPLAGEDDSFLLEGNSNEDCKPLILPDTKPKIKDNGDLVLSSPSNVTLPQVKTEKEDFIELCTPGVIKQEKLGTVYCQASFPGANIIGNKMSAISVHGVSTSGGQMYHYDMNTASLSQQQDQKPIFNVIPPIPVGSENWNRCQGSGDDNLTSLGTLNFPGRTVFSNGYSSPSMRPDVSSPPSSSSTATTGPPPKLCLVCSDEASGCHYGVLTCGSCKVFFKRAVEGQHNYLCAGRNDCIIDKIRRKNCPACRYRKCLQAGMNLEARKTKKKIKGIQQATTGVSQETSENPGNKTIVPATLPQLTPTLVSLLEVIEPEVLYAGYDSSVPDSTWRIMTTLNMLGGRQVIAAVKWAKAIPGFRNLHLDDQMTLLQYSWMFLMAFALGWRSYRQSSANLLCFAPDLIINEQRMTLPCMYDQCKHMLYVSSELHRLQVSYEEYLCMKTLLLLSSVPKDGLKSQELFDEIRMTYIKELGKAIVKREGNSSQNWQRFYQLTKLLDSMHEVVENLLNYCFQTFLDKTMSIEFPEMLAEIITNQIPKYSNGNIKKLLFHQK

Row | Ratio IC50 [1] | IC50 [2] | IC50 [3] | Compound
1 | 59 | 1.1 nM | 64.8 nM | CN(C)c1ccc([C@H]2C[C@@]3(C)[C@@H](CC[C@@]3(O)C#Cc3ccccc3Cl)[C@@H]3OCC4=CC(=O)CCC4=C32)cc1
2 | 38 | 0.91 nM | 34.4 nM | CN(C)c1ccc([C@H]2C[C@@]3(C)[C@@H](CC[C@@]3(O)C#Cc3cc(F)cc(F)c3)[C@@H]3OCC4=CC(=O)CCC4=C32)cc1
3 | 71 | 0.61 nM | 43.5 nM | CN(C)c1ccc([C@H]2C[C@@]3(C)[C@@H](CC[C@@]3(O)C#Cc3ccc(Cl)cc3)[C@@H]3OCC4=CC(=O)CCC4=C32)cc1
4 | 4 | 12.5 nM | 48.9 nM | CN(C)c1ccc([C@H]2C[C@@]3(C)[C@@H](CC[C@@]3(O)C#Cc3cccc(Cl)c3)[C@@H]3OCC4=CC(=O)CCC4=C32)cc1
5 | 3 | 19.5 nM | 65.8 nM | CN(C)c1ccc([C@H]2C[C@@]3(C)[C@@H](CC[C@@]3(O)C#Cc3ccc(C(C)(C)C)cc3)[C@@H]3OCC4=CC(=O)CCC4=C32)cc1
6 | 11 | 3.7 nM | 41.3 nM | CN(C)c1ccc([C@H]2C[C@@]3(C)[C@@H](CC[C@@]3(O)C#Cc3ccc(C#N)cc3)[C@@H]3OCC4=CC(=O)CCC4=C32)cc1
7 | 57 | 1 nM | 56.6 nM | CN(C)c1ccc([C@H]2C[C@@]3(C)[C@@H](CC[C@@]3(O)C#Cc3cccc(F)c3)[C@@H]3OCC4=CC(=O)CCC4=C32)cc1
8 | 13 | 2.9 nM | 36.3 nM | Cc1cccc(C#C[C@]2(O)CC[C@H]3[C@@H]4OCC5=CC(=O)CCC5=C4[C@@H](c4ccc(N(C)C)cc4)C[C@@]32C)c1
9 | 47 | 1.4 nM | 65.1 nM | CN(C)c1ccc([C@H]2C[C@@]3(C)[C@@H](CC[C@@]3(O)C#Cc3ccccc3F)[C@@H]3OCC4=CC(=O)CCC4=C32)cc1
10 | 20 | 5.8 nM | 113 nM | Cc1ccccc1C#C[C@]1(O)CC[C@H]2[C@@H]3OCC4=CC(=O)CCC4=C3[C@@H](c3ccc(N(C)C)cc3)C[C@@]21C
11 | 25 | 3.2 nM | 80.3 nM | COc1ccc(C#C[C@]2(O)CC[C@H]3[C@@H]4OCC5=CC(=O)CCC5=C4[C@@H](c4ccc(N(C)C)cc4)C[C@@]32C)cc1
12 | 7 | 8.6 nM | 62.7 nM | CN(C)c1ccc([C@H]2C[C@@]3(C)[C@@H](CC[C@@]3(O)C#Cc3ccccc3Br)[C@@H]3OCC4=CC(=O)CCC4=C32)cc1
13 | 17 | 2.7 nM | 45.4 nM | CN(C)c1ccc([C@H]2C[C@@]3(C)[C@@H](CC[C@@]3(O)C#Cc3cccc(C(F)(F)F)c3)[C@@H]3OCC4=CC(=O)CCC4=C32)cc1
14 | 33 | 0.94 nM | 31.3 nM | CN(C)c1ccc([C@H]2C[C@@]3(C)[C@@H](CC[C@@]3(O)C#Cc3ccc(Br)cc3)[C@@H]3OCC4=CC(=O)CCC4=C32)cc1
15 | 12 | – | – | CC#C[C@]1(O)CC[C@H]2[C@@H]3OCC4=CC(=O)CCC4=C3[C@@H](c3ccc(N(C)C)cc3)C[C@@]21C
16 | 16 | 3.2 nM | 51 nM | CN(C)c1ccc([C@H]2C[C@@]3(C)[C@@H](CC[C@@]3(O)C#Cc3ccccc3C(F)(F)F)[C@@H]3OCC4=CC(=O)CCC4=C32)cc1
17 | 139 | 0.27 nM | 37.6 nM | CN(C)c1ccc([C@H]2C[C@@]3(C)[C@@H](CC[C@@]3(O)C#Cc3ccc(F)cc3)[C@@H]3OCC4=CC(=O)CCC4=C32)cc1
18 | 148 | 0.75 nM | 111 nM | CN(C)c1ccc([C@H]2C[C@@]3(C)[C@@H](CC[C@@]3(O)C#Cc3ccc(C(F)(F)F)cc3)[C@@H]3OCC4=CC(=O)CCC4=C32)cc1
19 | 217 | – | – | CN(C)c1ccc([C@H]2C[C@@]3(C)[C@@H](CC[C@@]3(O)C#Cc3ccccc3)[C@@H]3OCC4=CC(=O)CCC4=C32)cc1

Row | Compound | Ratio IC50 [1] | IC50 [2] | IC50 [3]
20 | CN(C)c1ccc([C@H]2C[C@@]3(C)[C@@H](CC[C@@]3(O)C#Cc3ccccn3)[C@@H]3OCC4=CC(=O)CCC4=C32)cc1 | 5 | 34 nM | 175 nM
21 | CN(C)c1ccc([C@H]2C[C@@]3(C)[C@@H](CC[C@@]3(O)C#Cc3ccsc3)[C@@H]3OCC4=CC(=O)CCC4=C32)cc1 | 35 | 1.6 nM | 56 nM
22 | Cc1ccc(C#C[C@]2(O)CC[C@H]3[C@@H]4OCC5=CC(=O)CCC5=C4[C@@H](c4ccc(N(C)C)cc4)C[C@@]32C)cc1 | 14 | 1.6 nM | 22.1 nM
23 | CN(C)c1ccc([C@H]2C[C@@]3(C)[C@@H](CC[C@@]3(O)C#Cc3ccncc3)[C@@H]3OCC4=CC(=O)CCC4=C32)cc1 | 6 | 39 nM | 247 nM
24 | CN(C)c1ccc([C@H]2C[C@@]3(C)[C@@H](CC[C@@]3(O)C#Cc3cccnc3)[C@@H]3OCC4=CC(=O)CCC4=C32)cc1 | 16 | 21 nM | 342 nM
